Data: patent publication US20250333432A1, “NOVEL COMPOUND AND USE OF SAME” (NAGASE & CO., LTD., priority 2020, published 2025)

Columns and labels:
[1] = Solubility in solvent (methanol); format: physicochemical
[2] = test system: antioxidant responsive element transcription activity (pGL3-GSTYaARE-Luciferase) in ARPE-19 cells; experiment: Antioxidant responsive element luciferase reporter assay in ARPE-19 cells; format: cell-based; settings: for antioxidant effect in comparison with trehangelin A: ARE luciferase reporter, comparison with known substance trehangelin A; for antioxidant effect: conclusion from luciferase activity vs control, FIG. 1
Description: The physiological functions of the compounds obtained above were evaluated. The evaluation of the physiological functions was carried out by using the tool described in Carnosic acid, a catechol-type electrophilic compound, protects neurons both in vitro and in vivo through activation of the Keap1/Nrf2 pathway via S-alkylation of targeted cysteines on Keap1. Takumi Satoh et al., Journal of Neurochemistry. Vol. 104, pp. 1116-1131, (2008).
Briefly, ARPE-19 cells were seeded in 24-well plates using a 10% FBS-DMEM/F12 medium (manufactured by GIBCO) so as to be 50% confluent. After 24 hours, (1) a mixed solution (vector solution) of 0.5 μg of pGL3-GSTYaARE-Luciferase vector, 0.5 μg of pSV-betaGAL vector, and 50 μL of Opti-MEM I (manufactured by GIBCO) per well and (2) a mixed solution (lipofectamine 2000) of 2 μL of lipofectamine 2000 (manufactured by Thermo Fisher) and 50 μL of Opti-MEM I (manufactured by GIBCO) per well were prepared and left at room temperature for 5 minutes. The vector solution and the lipofectamine 2000 solution were mixed and left at room temperature for 20 minutes. The resulting mixed solution was added to cultured cells (ARPE-19 cells) (100 μL per well) and cultured in a CO2 incubator for 6 hours. Subsequently, the culture medium was replaced with a new 10% FBS-DMEM/F12 medium (0.5 mL/well), followed by culturing for 18 hours. The culture medium was then replaced with a new 10% FBS-DMEM/F12 medium (0.3 mL/well) or a 10% FBS-DMEM/F12 medium (0.3 mL/well) containing […] of various trehangelin derivatives, followed by culturing for 24 hours. After the medium was removed, 150 μL of PassiveLysisBuffer (manufactured by Promega) was added to prepare a cell lysis solution.
100 μL of each cell lysis solution was placed on a 96-well plate, and 100 μL of β-GAL assay kit solution (manufactured by Promega) was added, followed by incubation at 37° C. for 3 hours. Then, β-GAL activity was confirmed by measuring the absorbance at 405 nm.
20 μL of each cell lysis solution was placed in a 96-well plate which differs from the above 96-well plate, and 100 μL of each luciferase assay kit solution (manufactured by Promega) was added. Then, luciferase activity was measured by measuring the luminescence. The obtained result on the luciferase activity was corrected by dividing them by the result on the β-GAL activity, and the antioxidant responsive element transcription activity was calculated.

SMILES | Solubility in solvent [1] | antioxidant effect in comparison with trehangelin A [2] | antioxidant effect [2]
C/C=C(/C)C(=O)OC1C(O)C(CO)OC(OC2OC(CO)C(O)C(OC(=O)/C(C)=C\CC)C2O)C1O (centres unmarked) [3-O-(2-methyl-2-butenoyl)-3′-O-(2-methyl-2-pentenoyl)trehalose] | Poorly soluble in methanol | higher antioxidant effect than trehangelin A | have an antioxidant effect
C/C=C(/C)C(=O)OC1C(O)C(CO)OC(OC2OC(CO)C(O)C(OC(C)=O)C2O)C1O (centres unmarked) [3-O-acetyl-3′-O-angeloyltrehalose] | Poorly soluble in methanol |  | have an antioxidant effect
C/C=C\C(=O)OC1C(O)C(CO)OC(OC2OC(CO)C(O)C(OC(=O)/C(C)=C\C)C2O)C1O (centres unmarked) [3-O-angeloyl-3′-O-isocrotonyltrehalose] | Poorly soluble in methanol | higher antioxidant effect than trehangelin A | have an antioxidant effect
C/C=C(/C)C(=O)OC1C(O)C(CO)OC(OC2OC(CO)C(O)C(O)C2O)C1O (centres unmarked) [3-O-angeloyltrehalose] | Poorly soluble in methanol | almost the same level of antioxidant effect as that of trehangelin A | have an antioxidant effect
